Assay results taken from patent publication US6500846B1, “CDK inhibitors having flavone structure” (LG Chemical, Ltd., priority 1998, dated 2002).

Key:
in vivo = settings: male, ICR, mouse, po
Procedure: The acute oral toxcities of the compounds 14, 17, 28, 39, 51 and 57 each of which is obtained in Examples 14, 17, 73,84, 96 and 102, respectively are investigated in the following.
Solutions containing a compound in several different concentrations from each other were prepared, and they were administered orally to ICR male mouse with a dose of 10 ml/kg.
After administration, lethality and symptoms for 7 days were observed, and LD50 (mg/kg) was calculated according to Litchfield-Wilcoxon' method.

CDK2/cyclin A = molecular target: T1, CDK2/cyclin A (Homo sapiens, UniProt P24941); test: Inhibitory activity against CDK2/cyclin A enzyme (GST-RB phosphorylation, P32-γ-ATP, scintillation counting); format: biochemical; settings: 100 μM ATP, GST-RB substrate, 30° C. 30 minutes
T1 construct: made in house; host or cells: insect cells infected with baculoviruses
Procedure: (§1) Analysis of inhibitory activity against CDK2/cyclin A and CDK4/cyclin D1 enzyme.
(§2) The inhibitory activity against CDK2 is measured by referring to Kitagawa, M. et al., Oncogene 9:2549, 1994 and the inhibitory activity against CDK4 is measured by referring to Carlson, B. A. et al., Cancer Research 56:2473,1996.
(§3) As for CDK2, either the extract from the insect cell infected both with baculovirus which expresses CDK2 gene and baculovirus which expresses cyclin A gene or the active enzyme which had been purified therefrom was used. CDK4 enzyme was also obtained from the insect cell infected both with baculovirus expressing CDK4 gene and baculovirus expressing cyclin D1 gene. As the substrate for CDK2, either histon H1 or Rb protein was used. Rb protein was also used as the substrate for CDK4.
(§4) Specifically the activities of enzymes CDK2/cyclin A and CDK4/cyclin D1 were determined according to the following procedure.
(§5) 100 ng of enzyme was reacted in a total 1000 μl of 20 mM Tris (pH 8.0), 100 mM NaCl, 10 mM MgCl2 buffer solution containing 20 μg of GST-RB protein, 100 μM of ATP and 5 μCi of P32-γ-ATP at 30° C. for 30 minutes. Then, the enzyme reaction was stopped by adding EDTA to a concentration of 20 mM. Subsequently, 30 μl of 50% glutathione bead (purchased from Pharmacia) was added to attach GST-RB to the bead, which was washed three times with 20mM Tris (pH 8.0), 100 mM NaCl, 10 mM EDTA solution, and then scintillation counting was carried out. To analyze the inhibitory activity of the compound, the inhibitor having a proper concentration was added to the enzyme reaction solution, and then the enzyme activity was measured according to the above method.
(§6) The inhibitory activity of the compound of formula (1) according to the present invention against CDK2 and CDK4 is represented as IC50 value. The compounds which are not included in Examples(compound 63, 64, 65 and 66) were synthesized and purified according to the same procedure as examples, and then IC50 thereof was measured.

CDK4/cyclin D1 = molecular target: T2, CDK4/cyclin D1 (Homo sapiens, UniProt P11802); test: Inhibitory activity against CDK4/cyclin D1 enzyme (GST-RB phosphorylation, P32-γ-ATP, scintillation counting); format: biochemical; settings: CDK4/cyclin D1, 100 μM ATP, GST-RB substrate, 30° C. 30 minutes
T2 construct: made in house; host or cells: insect cells infected with baculoviruses
T2 sequence (P11802 whole entry, species assumed): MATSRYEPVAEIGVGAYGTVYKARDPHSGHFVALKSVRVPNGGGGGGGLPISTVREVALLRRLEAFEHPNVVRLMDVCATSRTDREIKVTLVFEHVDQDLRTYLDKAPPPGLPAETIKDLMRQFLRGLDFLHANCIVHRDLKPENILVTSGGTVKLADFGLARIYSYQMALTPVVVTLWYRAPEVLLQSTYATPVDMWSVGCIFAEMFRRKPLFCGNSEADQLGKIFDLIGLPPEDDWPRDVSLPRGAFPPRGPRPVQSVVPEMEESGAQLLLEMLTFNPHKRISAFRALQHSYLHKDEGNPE
T2 sequence (P24385 whole entry partner, species assumed): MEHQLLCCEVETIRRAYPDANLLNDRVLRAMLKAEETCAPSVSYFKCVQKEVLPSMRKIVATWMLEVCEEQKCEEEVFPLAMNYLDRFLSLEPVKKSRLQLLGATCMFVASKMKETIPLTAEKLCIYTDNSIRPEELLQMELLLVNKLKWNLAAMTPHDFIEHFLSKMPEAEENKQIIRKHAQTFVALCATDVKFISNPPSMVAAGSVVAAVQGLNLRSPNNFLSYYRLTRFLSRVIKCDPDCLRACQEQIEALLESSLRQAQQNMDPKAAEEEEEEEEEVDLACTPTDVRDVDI
Procedure: as §1, §2, §3, §4, §5, §6

IC50 (CDK2/cyclin A) [µM] | IC50 (CDK4/cyclin D1) [µM] | SMILES | LD50 at 7 days (in vivo) [mg/kg]
2.6 | 2.3 | Nc1ccc(NC(=O)Nc2ccc3oc(-c4ccc(O)c(O)c4)c(O)c(=O)c3c2)cc1 [Compound 62, N-(4-aminophenyl)-N′-[2-(3,4-dihydroxyphenyl)-3-hydroxy-4-oxo-4H-chromen-6-yl]urea] | 
< 10 | < 10 | Cc1cc2oc(-c3ccc(O)c(O)c3)c(O)c(=O)c2cc1Cl [Compound 22, 6-chloro-2-(3,4-dihydroxyphenyl)-3-hydroxy-7-methyl-4H-chromen4-one] | 
> 100 | > 100 | COc1ccc2c(=O)c(O)c(-c3ccc4c(c3)OCO4)oc2c1 [Compound 6, 2-(benzo[1,3]dioxol-5-yl)-3-hydroxy-7-methoxy-chromen-4-one] | 
4 | 2 | O=c1c(O)c(-c2ccc(O)c(O)c2)oc2ccc(NS(=O)(=O)c3ccc(-c4ccccc4)cc3)cc12 [Compound 35, N-[2-(3,4-Dihydroxyphenyl)-3-hydroxy-4-oxo-4H-chromen-6-yl]-[1,1′-biphenyl]-4-sulfonamide] | 
12 | 3.5 | O=c1c(O)c(-c2ccc(O)c(O)c2)oc2ccc(NS(=O)(=O)c3ccc(-c4ccon4)s3)cc12 [Compound 36, N-[2-(3,4-dihydroxyphenyl)-3-hydroxy-4-oxo-4H-chromen-6-yl]-5-(isooxazolyl)-2-thiophenesulfonamide] | 
> 200 | 30 | CN1CCN(c2ccc(S(=O)(=O)Nc3ccc4oc(-c5ccc(O)c(O)c5)c(O)c(=O)c4c3)cc2N)CC1 [Compound 50, 3-amino-N-[2-(3,4-dihydroxyphenyl)-3-hydroxy-4-oxo-4H-chromen-6-yl]-4-(4-methyl-1-piperazinyl)benzenesulfonamide] | 
2.3 | 2.8 | O=C(NCc1ccccc1)Nc1ccc2oc(-c3ccc(O)c(O)c3)c(O)c(=O)c2c1 [Compound 54, N-benzyl-N′-[2-(3,4-dihydroxyphenyl)-3-hydroxy-4-oxo-4H-chromen-6-yl]urea] | 
> 100 | > 100 | COc1ccc(-c2oc3c([N+](=O)[O-])cc(Cl)cc3c(=O)c2O)cc1 [Compound 9, 6-chloro-3-hydroxy-2-(4-methoxy-phenyl)-8-nitro-chromen-4-one] | 
1.3 | 0.7 | O=C(Nc1ccc(Br)cc1)Nc1ccc2oc(-c3ccc(O)c(O)c3)c(O)c(=O)c2c1 [Compound 55, N-(4-bromophenyl)-N′-[2-(3,4-dihydroxyphenyl)-3-hydroxy-4-oxo-4H-chromen-6-yl]urea] | 
> 100 | > 100 | COc1cccc2oc(-c3ccc4c(c3)OCO4)c(O)c(=O)c12 [Compound 4, 2-(benzo[1,3]dioxol-5-yl)-3-hydroxy-5-methoxy-chromen-4-one] | 
23 | 6 | O=C(Nc1ccc2oc(-c3ccc(O)c(O)c3)c(O)c(=O)c2c1)c1ccccc1 [Compound 52, N-[2-(3,4-dihydroxyphenyl)-3-hydroxy-4-oxo-4H-chromen-6-yl]benzamide] | 
> 200 | > 200 | COc1ccc2c(=O)cc(-c3ccccc3)oc2c1 [Compound 2, 7-methoxy-2-phenyl-chromen-4-one] | 
< 5 | < 5 | O=c1c(O)c(-c2ccc(O)c(O)c2)oc2c(Br)cc(Br)cc12 [Compound 20, 6,8-Dibromo-2-(3,4-dihydroxyphenyl)-3-hydroxy-4H-chromen-4-one] | 
< 10 | < 10 | O=c1c(O)c(-c2ccc(O)c(O)c2)oc2c(O)cccc12 [Compound 25, 2-(3,4-dihydroxyphenyl)-3,8-dihydroxy-4H-chromen-4-one] | 

Further lines, the molecule ahead of its results:

SMILES | IC50 (CDK2/cyclin A) [µM] | IC50 (CDK4/cyclin D1) [µM] | LD50 at 7 days (in vivo) [mg/kg]
O=c1c(O)c(-c2ccc(O)c(O)c2)oc2ccc(O)cc12 [Compound 14, 2-(3,4-dihydroxyphenyl)-3,6-dihydroxy-4H-chromen-4-one] | < 5 | < 5 | > 3000
Cc1ccc(S(=O)(=O)Nc2ccc3oc(-c4ccc(O)c(O)c4)c(O)c(=O)c3c2)cc1 [Compound 28, N-[2-(3,4-dihydroxyphenyl)-3-hydroxy-4-oxo-4H-chromen-6-yl]-4-methylbenzenesulfonamide] | 56 | 7.8 | > 3000
O=C(NC(=O)c1ccccc1)Nc1ccc2oc(-c3ccc(O)c(O)c3)c(O)c(=O)c2c1 [Compound 57, N-benzoyl-N′-[2-(3,4-dihydroxyphenyl)-3-hydroxy-4-oxo-4H-chromen-6-yl]urea] | 22.4 | 18 | > 3000
O=c1c(O)c(-c2ccc(O)c(O)c2)oc2ccc(NS(=O)(=O)c3ccc(F)cc3)cc12 [Compound 43, N-[2-(3,4-dihydroxyphenyl)-3-hydroxy-4-oxo-4H-chromen-6-yl]-4-fluorobenzenesulfonamide] | 8.6 | 2.1 | 
Cc1cc2oc(-c3ccc(O)c(O)c3)c(O)c(=O)c2cc1C [Compound 26, 2-(3,4-dihydroxyphenyl)-6,7-dimethyl-3-hydroxy-4H-chromen-4-one] | < 10 | < 10 | 
O=c1c(O)c(-c2ccc(O)c(O)c2)oc2c(F)cc(F)cc12 [Compound 21, 6,8-difluoro-2-(3,4-dihydroxyphenyl)-3-hydroxy-4H-chromen-4-one] | < 10 | < 10 | 
O=c1c(O)c(-c2ccc(O)c(O)c2)oc2ccc(NS(=O)(=O)NC3CCCCC3)cc12 [Compound 47, N-Cyclohexyl-N′-[2-(3,4-dihydroxyphenyl)-3-hydroxy-4-oxo-4H-chromen-6-yl]sulfamide] | 65 | 2 | 
O=C(Nc1ccc2oc(-c3ccc(O)c(O)c3)c(O)c(=O)c2c1)c1ccc(Cl)cc1 [Compound 53, 4-chloro-N-[2-(3,4-dihydroxyphenyl)-3-hydroxy-4-oxo-4H-chromen-6-yl]benzamide] | > 100 | 5.6 | 
O=c1c(O)c(-c2ccc(O)c(O)c2)oc2ccc(NS(=O)(=O)c3ccc(Cl)c([N+](=O)[O-])c3)cc12 [Compound 40, 4-chloro-N-[2-(3,4-dihydroxyphenyl)-3-hydroxy-4-oxo-4H-chromen-6-yl]-3-nitrobenzenesulfonamide] | 80 | 2.5 | 
COc1ccc2c(=O)c(O)c(-c3ccc(Cl)cc3)oc2c1 [Compound 8, 2-(4-chloro-phenyl)-3-hydroxy-7-methoxy-chromen-4-one] | > 100 | > 100 | 
Nc1ccc2oc(-c3ccc(O)c(O)c3)c(O)c(=O)c2c1 [Compound 15, 6-amino-2-(3,4-dihydroxyphenyl)-3-hydroxy-4H-chromen-4-one] | < 5 | < 5 | 
CN(C)c1cccc2c(S(=O)(=O)Nc3ccc4oc(-c5ccc(O)c(O)c5)c(O)c(=O)c4c3)cccc12 [Compound 32, N-[2-(3,4-dihydroxyphenyl)-3-hydroxy-4-oxo-4H-chromen-6-yl]-5-(dimethylamino)-1-naphthalenesulfonamide] | 35.5 | 4.2 | 
COc1ccc(-c2oc3cc(OC)ccc3c(=O)c2O)cc1 [Compound 7, 3-hydroxy-7-methoxy-2-(4-methoxy-phenyl)-chromen-4-one] | > 100 | > 100 | 
O=c1c(O)c(-c2ccc(O)c(O)c2)oc2ccc(NS(=O)(=O)c3cc(Br)c(Br)s3)cc12 [Compound 34, 4,5-Dibromo-N-[2-(3,4-dihydroxyphenyl)-3-hydroxy-4-oxo-4H-chromen-6-yl]-2-thiophenesulfonamide] | 3 | 1 | 
COc1ccc2oc(-c3ccc4c(c3)OCO4)c(O)c(=O)c2c1 [Compound 5, 2-(benzo[1,3]dioxol-5-yl)-3-hydroxy-6-methoxy-chromen-4-one] | > 100 | > 100 | 
Cc1ccc2oc(-c3ccc(O)c(O)c3)c(O)c(=O)c2c1 [Compound 18, 6-methyl-2-(3,4-dihydroxyphenyl)-3-hydroxy-4H-chromen-4-one] | < 10 | < 10 | 
O=c1c(O)c(-c2ccc(O)c(O)c2)oc2cc(O)ccc12 [Compound 64, 2-(3,4-dihydroxyphenyl)-3,7-dihydroxy-4H-chromen-4-one] | < 5 | < 10 | 
